Source: ChEMBL document CHEMBL4665709, “Rational Avoidance of Protease Cleavage Sites and Symmetrical End-Tagging Significantly Enhances the Stability and Therapeutic Potential of Antimicrobial Peptides” (J Med Chem, 2020)
In brackets after ≈: the same amount, converted by molar mass. Activity calls are given as the source filed them. The rule behind the calls is not given here. Where a SMILES comes first, the peptide text is derived from it.

Legend:
[1] = Stability of compound at 100 degreeC after 30 to 90 mins; type: physicochemical; conditions: time 30-90 min
[2] = system: Escherichia coli; experiment: Antibacterial activity against Escherichia coli ATCC 25922 infected in C57BL/6 mouse assessed as reduction in IL-1beta level in serum at 10 mg/kg, ip measured after 11 hrs by ELISA; type: functional, organism-based
[3] = system: Escherichia coli; experiment: Antibacterial activity against Escherichia coli ATCC 25922 infected in C57BL/6 mouse assessed as reduction in lesion in kidney at 10 mg/kg, ip measured after 11 hrs by hematoxylin and eosin staining based assay; type: functional, organism-based
[4] = system: Salmonella typhimurium; experiment: Antibacterial activity against Salmonella typhimurium 14028 after 18 to 24 hrs by CLSI-based broth microdilution method; type: functional, Salmonella enterica subsp. enterica serovar Typhimurium; conditions: Salmonella enterica, time hrs 18-24
[5] = system: Escherichia coli; experiment: Antibacterial activity against Escherichia coli ATCC 25922 after 18 to 24 hrs in presence of 6 uM NH4+ by CLSI-based broth microdilution method; type: functional; conditions: time hrs 18-24
[6] = system: Cell membrane; experiment: Induction of membrane permeabilization in Escherichia coli ATCC 25922 after 1 hr by PI fluorescence staining-based confocal microscopy analysis
[7] = Therapeutic index, ratio of MHC for human RBC to geometric mean of peptide MIC for Salmonella typhimurium 14028; type: toxicity; conditions: human red blood cells (RBC), read-out: TI
[8] = system: Escherichia coli; experiment: Antibacterial activity against Escherichia coli ATCC 25922 after 18 to 24 hrs in presence of 8 uM Zn2+ by CLSI-based broth microdilution method; type: functional; conditions: time hrs 18-24
[9] = system: Cell membrane; experiment: Induction of cytoplasmic membrane depolarization in Staphylococcus aureus ATCC 29213 at 0.5 to 2 times MIC up to 1000 secs by DiSC3-5 dye-based fluorescence assay; type: subcellular; conditions: time sec <=1000
[10] = Cytotoxicity against mouse RAW264.7 cells assessed as cell viability at 128 uM by MTT assay relative to control; type: cell-based; conditions: read-out: Activity
[11] = system: Escherichia coli; experiment: Antibacterial activity against Escherichia coli ATCC 25922 infected in C57BL/6 mouse assessed as reduction in lesion in lung at 10 mg/kg, ip measured after 11 hrs by hematoxylin and eosin staining based assay; type: functional, organism-based
[12] = Stability of compound assessed as chymotrypsin (unknown origin)-mediated drug degradation after 8 hrs by RP-HPLC analysis; type: ADME; conditions: human
[13] = Toxicity in C57BL/6 mouse assessed as effect on alanine aminotransferase level at 10 mg/kg, ip measured after 5 days; type: organism-based; conditions: in vivo, 120 h, time 5 day
[14] = Stability of compound assessed as pepsin (unknown origin)-mediated drug degradation after 8 hrs by RP-HPLC analysis; type: ADME; conditions: human
[15] = Therapeutic index, ratio of MHC for human RBC to geometric mean of peptide MIC for Staphylococcus epidermidis ATCC 12228; type: toxicity; conditions: human red blood cells (RBC), read-out: TI
[16] = system: Cell membrane; experiment: Disruption of membrane integrity in Escherichia coli ATCC 25922 assessed as induction of membrane rupture after 1 hr by PI-staining based flow cytometry analysis; type: subcellular
[17] = system: Cell membrane; experiment: Induction of structural changes in membrane of Staphylococcus aureus ATCC 29213 assessed as sparsity at 1 times MIC after 1 hr by transmission electron microscopy; type: subcellular
[18] = molecular target: Trypsin (Homo sapiens, UniProt P07477+P07478+P35030); experiment: Stability of compound assessed as trypsin (unknown origin)-mediated drug degradation after 8 hrs by RP-HPLC analysis; type: ADME, protein assay
[19] = system: Staphylococcus aureus; experiment: Antibacterial activity against methicillin-resistant Staphylococcus aureus 43300 after 18 to 24 hrs by CLSI-based broth microdilution method; type: functional; conditions: time hrs 18-24
[20] = system: Salmonella enterica; experiment: Antibacterial activity against Salmonella choleraesuis 503 after 18 to 24 hrs by CLSI-based broth microdilution method; type: functional; conditions: time hrs 18-24
[21] = Toxicity in C57BL/6 mouse assessed as effect on aspartate aminotransferase level at 10 mg/kg, ip measured after 5 days; type: organism-based; conditions: in vivo, 120 h, time 5 day
[22] = system: Cell membrane; experiment: Disruption of membrane integrity in Staphylococcus aureus ATCC 29213 assessed as induction of membrane rupture at 0.5 to 2 times after 1 hr by PI-staining based fluorescence microscopy; type: subcellular
[23] = system: Staphylococcus aureus; experiment: Antibacterial activity against Staphylococcus aureus ATCC 29213 after 18 to 24 hrs by CLSI-based broth microdilution method; type: functional; conditions: time hrs 18-24
[24] = system: Escherichia coli; experiment: Antibacterial activity against Escherichia coli ATCC 25922 after 18 to 24 hrs in presence of 1 mM Mg2+ by CLSI-based broth microdilution method; type: functional; conditions: time hrs 18-24
[25] = Toxicity in C57BL/6 mouse assessed as change in body weigh at 20 mg/kg, ip measured for 5 days; type: organism-based; conditions: in vivo, 120 h, time 5 day
[26] = system: Cell membrane; experiment: Induction of morpholoical changes in membrane of Escherichia coli ATCC 25922 assessed as breakage in bacterial membrane at 1 times MIC after 1 hr by scanning electron microscopy
[27] = system: Cell membrane; experiment: Induction of morpholoical changes in membrane of Staphylococcus aureus ATCC 29213 assessed as fragmentation in bacterial membrane at 1 times MIC after 1 hr by scanning electron microscopy; type: subcellular
[28] = Toxicity in C57BL/6 mouse assessed as effect on alanine aminotransferase level at 20 mg/kg, ip measured after 5 days; type: organism-based; conditions: in vivo, 120 h, time 5 day
[29] = system: Enterococcus faecalis; experiment: Antibacterial activity against Enterococcus faecalis ATCC 29212 after 18 to 24 hrs by CLSI-based broth microdilution method; type: functional; conditions: time hrs 18-24
[30] = Toxicity in C57BL/6 mouse assessed as effect on blood urea nitrogen level at 10 mg/kg, ip measured after 5 days; type: organism-based; conditions: in vivo, 120 h, time 5 day
[31] = system: Cell membrane; experiment: Disruption of membrane integrity in Escherichia coli ATCC 25922 assessed as induction of membrane rupture at 2 times MIC after 1 hr by PI-staining based flow cytometry analysis relative to control
[32] = Toxicity in C57BL/6 mouse assessed as effect on creatinine level at 10 mg/kg, ip measured after 5 days; type: organism-based; conditions: in vivo, 120 h, time 5 day
[33] = system: Staphylococcus aureus; experiment: Antibacterial activity against Staphylococcus aureus ATCC 29213 after 18 to 24 hrs in presence of 6 uM Fe3+ by CLSI-based broth microdilution method; type: functional; conditions: time hrs 18-24
[34] = Therapeutic index, ratio of MHC for human RBC to geometric mean of peptide MIC for Staphylococcus aureus ATCC 29213; type: toxicity; conditions: human red blood cells (RBC), read-out: TI
[35] = system: Escherichia coli; experiment: Antibacterial activity against Escherichia coli ATCC 25922 after 18 to 24 hrs in presence of 6 uM Fe3+ by CLSI-based broth microdilution method; type: functional; conditions: time hrs 18-24
[36] = Therapeutic index, ratio of MHC for human RBC to geometric mean of peptide MIC for Salmonella typhimurium 7731; type: toxicity; conditions: human red blood cells (RBC), read-out: TI
[37] = Therapeutic index, ratio of MHC for human RBC to geometric mean of peptide MIC for methicillin-resistant Staphylococcus aureus 43300; type: toxicity; conditions: human red blood cells (RBC), read-out: TI
[38] = system: Cell membrane; experiment: Disruption of membrane integrity in Staphylococcus aureus ATCC 29213 assessed as induction of membrane rupture after 1 hr by PI-staining based flow cytometry analysis
[39] = Cytotoxicity against HEK-293T cells assessed as cell viability at 128 uM by MTT assay relative to control; type: cell-based; conditions: human, read-out: Activity
[40] = system: Streptococcus agalactiae; experiment: Antibacterial activity against Streptococcus agalactiae H92 after 18 to 24 hrs by CLSI-based broth microdilution method; type: functional; conditions: time hrs 18-24
[41] = system: Escherichia coli; experiment: Antibacterial activity against Escherichia coli ATCC 25922 measured after 18 to 24 hrs in presence of pepsin by CLSI-based broth microdilution method; type: functional, organism-based; conditions: time hrs 18-24

With `CC[C@H](C)[C@H](N)C(=O)N[C@H](C(=O)N[C@H](C(=O)N[C@@H](CS)C(=O)N[C@@H](CCCNC(=N)N)C(=O)N[C@@H](CCCCN)C(=O)N1CCC[C@H]1C(=O)N[C@H](C(=O)N[C@H](C(=O)N[C@@H](CS)C(=O)N[C@@H](CCCNC(=N)N)C(=O)N[C@@H](CCCCN)C(=O)N1CCC[C@H]1C(=O)N[C@H](C(=O)N[C@H](C(=O)N[C@@H](CS)C(=O)N[C@@H](CCCNC(=N)N)C(=O)N[C@@H](CCCCN)C(=O)N1CCC[C@H]1C(=O)N[C@H](C(=O)N[C@H](C(=O)N[C@@H](CS)C(=O)N[C@@H](CCCNC(=N)N)C(=O)N[C@@H](CCCCN)C(=O)N1CCC[C@H]1C(=O)N[C@H](C(=O)N[C@H](C(=O)N[C@H](C(N)=O)[C@@H](C)CC)[C@@H](C)CC)[C@@H](C)CC)[C@@H](C)CC)[C@@H](C)CC)[C@@H](C)CC)[C@@H](C)CC)[C@@H](C)CC)[C@@H](C)CC)[C@@H](C)CC)[C@@H](C)CC` (H-IIICRKPIICRKPIICRKPIICRKPIII-NH2) the Stabilty [1] was “Stable”, the Activity [2] was “Active” and the Activity [3] was “Active”. For the same molecule, the MIC [4] was 2 µM (≈ 6.63 µg/mL), the MIC [5] was 2 µM and the Activity [6] was “Active”. For the same molecule, the selectivity ratio [7] was 57, the MIC [8] was 2 µM and the Activity [9] was “Active”. The viability at 128 µM [10] was greater than 90%, the Activity [11] was “Active” and the Stabilty [12] was “Stable”. The Activity [13] was “Non-Toxic”, the Stabilty [14] was “Stable” and the selectivity ratio [15] was 28.5. For the same molecule, the Activity [16] was “Dose-dependent effect”, the Activity [17] was “Active” and the Stabilty [18] was “Stable”. For the same molecule, the MIC [19] was 4 µM (≈ 13.3 µg/mL), the MIC [20] was 2 µM (≈ 6.63 µg/mL) and the Activity [21] was “Non-Toxic”. For the same molecule, the Activity [22] was “Active”, the MIC [23] was 8 µM (≈ 26.5 µg/mL) and the MIC [24] was 4 µM. For the same molecule, the Activity [25] was “Non-Toxic”, the Activity [26] was “Active” and the Activity [27] was “Active”. For the same molecule, the Activity [28] was “Non-Toxic”, the MIC [29] was 8 µM (≈ 26.5 µg/mL) and the Activity [30] was “Non-Toxic”. For the same molecule, the Activity [31] was greater than 90%, the Activity [32] was “Non-Toxic” and the MIC [33] was 8 µM. It also gave a selectivity ratio [34] of 28.5, an MIC [35] of 2 µM and a selectivity ratio [36] of 57. For the same molecule, the selectivity ratio [37] was 28.5, the Activity [38] was “Dose-dependent effect” and the viability at 128 µM [39] was greater than 90%. For the same molecule, the MIC [40] was 2 µM (≈ 6.63 µg/mL) and the Activity [41] was “Active”.
